Measurements from patent US6906077B1, “Use of neurotrophic factor stimulators for the treatment of ophthalmic neurodegenerative diseases” (Alcon Manufacturing, Ltd., priority 1998, dated 2005).

B1: brain-derived neurotrophic factor (protein, UniProt P23560 19-247, looked up)
Neurotrophic factor BDNF …: APMKEANIRGQGGLAYPGVRTHGTLESVNGPKAGSRGLTSLADTFEHVIEELLDEDQKVRPNEENNKDADLYTSRVMLSSQVPLEPPLLFLLEEYKNYLDAANMSMRVRRHSDPARRGELSVCDSISEWVTAADKKTAVDMSGGTVTVLEKVPVSKGQLKQYFYETKCNPMGYTKEGCRGIDKRHWNSQCRTTQSYVRALTMDSKKRIGWRFIRIDTSCVCTLTIKRGR

How the values were obtained:
[1] = tested on: RGCs (retinal ganglion cells); assay: Retinal Ganglion Cell Survival Assay (serum deprivation); format: cell-based, Neonatal, Sprague-Dawley rats; settings: cultured without serum; Propentofylline 100 μM; 3 days after serum removal; survival with serum = 100%; mean and SEM (n = 6)
Source text: Retinal Ganglion Cell Survival Assay:
Techniques for the isolation and culture of RGCs were adapted from those reported by Takahashi N. et al., Rat retinal ganglion cells in culture. Exp. Eye Res. volume 53, pages 565-572 (1991). […] Two to 4 days later, retina cells were dissociated. Cultured RGCs were identified by sufficient Di-I fluorescence to be observed visually using a fluorescent microscope.
Neonatal, Sprague-Dawley rats, 2-5 days old, were anesthetized by hypothermia, after which, a 2 mm midline opening was made in the scalp just caudal to the traverse sinus. The tip of the injection needle (30 gauge) was inserted 6 mm below the top of the skull, and a 5 μl Di-I solution, containing 3 mg/ml Di-I (1,1′-dioctadecyl-3,3,3′,3′-tetramethylindo-carbocyanine perchlorate (Molecular Probes, Eugene, Oreg.) in 90% ethanol and 10% dimethylsulfoxide, was injected. The wound was then covered with a drop of Flexible Collodion (Amend Drug & Chemical Co., Irvington, N.J.). Rats were returned to their mother after warming and recovery from anesthesia.
Two to 4 days after Di-I injection, rats were anesthetized by hypothermia and sacrificed by decapitation. Their eyes were enucleated and placed in Dulbecco's modified Eagle's medium: Nutrient mixture F12 (1:1; DMEM/F12, Gibco Co., Grand Island, N.Y.). The retina from each eye was detached and isolated. […]

axotomized RGCs = settings: single intravitreal injection of 5 μg on Day 0; one week after; untreated retinas lost nearly half of the axotomized RGCs; cited from earlier work

Molecule | RGC Survival (%) [1] [%] | survival of axotomized RGCs (axotomized RGCs)
CCCn1cnc2c1c(=O)n(CCCCC(C)=O)c(=O)n2C [Propentofylline, propentofylline] | 96.9 ± 4.8 | –
B1 | – | virtually all RGCs were present
